# Measured values from patent publication US20240218022A1, “ANTI-VISTA MACROCYCLIC PEPTIDES AND COMPOSITIONS” (BRISTOL-MYERS SQUIBB COMPANY, priority 2022, published 2024).
# Target: T1, mouse VISTA (mVISTA) (Mus musculus, UniProt Q9D659)
# T1 construct: expressed in transfected cells; host or cells: Human embryonic kidney 293T cells
# T1 sequence (Q9D659 33-308): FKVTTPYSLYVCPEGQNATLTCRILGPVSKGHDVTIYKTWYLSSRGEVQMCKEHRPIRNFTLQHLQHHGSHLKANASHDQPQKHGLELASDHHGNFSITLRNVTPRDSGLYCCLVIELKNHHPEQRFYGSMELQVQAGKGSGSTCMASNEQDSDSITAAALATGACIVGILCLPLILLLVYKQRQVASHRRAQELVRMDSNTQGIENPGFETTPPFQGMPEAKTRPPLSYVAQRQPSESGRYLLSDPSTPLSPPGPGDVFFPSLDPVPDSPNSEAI
# Experiment: Cell-Based Binding High-Content Assay For mVISTA (HC CBA mVISTA)
# Conditions: cell-based binding high-content assay; read-out: HC CBA miPrISTA IC50
# Procedure: Cell-Based Binding High-Content Assay For mVISTA
# Human embryonic kidney 293T cells (293T) expressing mouse VISTA (mVISTA) were used for the assessment of compounds competing with the binding of a biotinylated peptide. Cryopreserved cells were thawed in a 37° C. water bath and incubated overnight at a 37° C./5% CO2 incubator in assay culture media DMEM (Life Technologies Inc. Cat. No. 11995-126) supplemented with 10% (v/v) FBS (Sigma, Cat. No. F4135), 1× Penicillin/Streptomycin (Life Technologies Inc. Cat. No. 15140-122). Cells were harvested, washed and resuspended in DMEM media […]. To test compounds under “no-wash” condition, cells were seeded into PDL-coated 384 well plates (Corning, Cat. No. 356663) at 4,000 cells/20 μL. After incubating the cell plates for two hours at a 37° C./5% CO2 incubator, 125 nL of test compound was added using an ECHO. Alternatively, to test compounds under “wash” condition, test compounds were added first, followed by addition of 20 μL cells at a density of 4000 cells/well. After incubation for an hour, the media was removed, followed by addition of 20 μL of fresh media ( ), and plates were then incubated for another hour. To plates either under “no wash” or “wash” condition, the biotinylated peptide was added to a final concentration of 2 nM, and plates were incubated at room temperature for 30 minutes. Fifteen (15) μL of Alexa 647 conjugated Streptavidin (Life Tech, Cat. No. S21374), suspended at 2 μg/ml in media, was added to the assay plate and incubate for 30 minutes. Cells were fixed by adding 15 μL of formaldehyde at a final concentration of 8% (w/v) (Sigma Cat. No. 252549), 20 μg/mL Hoechst (Thermo Scientific Cat. No. 62249) in PBS for 10 minutes at room temperature. The plates were washed 3 times in dPBS, sealed, and read on a CellInsight NXT High Content Screening Platform IC903000 (Thermo Scientific). The 50% effective concentration (IC50) was calculated using the four-parameter logistic formula y=A+((B−A)/(1+((C/x)^D))), where A and B denote minimal and maximal % inhibition, respectively, C is the EC50, D is hill slope and x represent compound concentration.
row,Compound,IC50
1,CCCCCCN1CC(=O)N[C@@H](Cc2ccc(O)cc2)C(=O)N[C@@H](CCCC)C(=O)N[C@@H](CC(N)=O)C(=O)N[C@@H](CCCNC(=N)N)C(=O)N[C@@H](CC(C)C)C(=O)N[C@@H](CCCCC)C(=O)N2CCC[C@H]2C(=O)N[C@@H](C(C)C)C(=O)N[C@@H](CC(=O)O)C(=O)N[C@H](C(=O)NCCOCCOCC(=O)N[C@@H](CC(=O)O)C(=O)NCCOCCOCC(=O)NCCCCCCCCCCC(=O)O)CSCC(=O)N[C@@H](Cc2cccc(C)c2)C(=O)N[C@@H](Cc2c[nH]c3ccccc23)C(=O)N[C@@H](CC(=O)O)C1=O (stereo in doubt) [compound 2286],0.0253 µM
2,CCCCCCN1CC(=O)N[C@@H](Cc2ccc(O)cc2)C(=O)N[C@@H](C(C)C)C(=O)NCC(=O)N[C@@H](CCCNC(=N)N)C(=O)N[C@@H](CC(C)C)C(=O)N[C@@H](CCCCC)C(=O)N2CCC[C@H]2C(=O)N[C@@H](C(C)C)C(=O)N[C@@H](CC(=O)O)C(=O)N[C@H](C(=O)NCCOCCOCC(=O)N[C@@H](CC(=O)O)C(=O)NCCOCCOCC(=O)NCCCCCCCCCCC(=O)O)CSCC(=O)N[C@@H](Cc2ccc3ccccc3c2)C(=O)N[C@@H](Cc2ccc(O)cc2)C(=O)N[C@@H](CC(=O)O)C1=O (stereo in doubt) [compound 2287],0.0216 µM
3,CCCCCCN1CC(=O)N[C@@H](Cc2ccc(O)cc2)C(=O)N[C@@H](CCCC)C(=O)N[C@@H](CC(N)=O)C(=O)N[C@@H](CCCNC(=N)N)C(=O)N[C@@H](CC(C)C)C(=O)N[C@@H](CCCCC)C(=O)N2CCC[C@H]2C(=O)N[C@@H](C(C)C)C(=O)N[C@@H](CO)C(=O)N[C@H](C(=O)NCCOCCOCC(=O)N[C@@H](CC(=O)O)C(=O)NCCOCCOCC(=O)NCCCCCCCCCCC(=O)O)CSCC(=O)N[C@@H](Cc2ccc3ccccc3c2)C(=O)N[C@@H](Cc2ccc(O)cc2)C(=O)N[C@@H](CC(=O)O)C1=O (stereo in doubt) [compound 2288],0.0086 µM
4,CCCCCCN1CC(=O)N[C@@H](Cc2ccc(O)cc2)C(=O)N[C@@H](CC(C)C)C(=O)N[C@@H](CC(N)=O)C(=O)N[C@@H](CCCNC(=N)N)C(=O)N[C@@H](CC(C)C)C(=O)N[C@@H](CCCCC)C(=O)N2CCC[C@H]2C(=O)N[C@@H](C(C)C)C(=O)N[C@@H](C(C)C)C(=O)N[C@H](C(=O)NCCOCCOCC(=O)N[C@@H](CC(=O)O)C(=O)NCCOCCOCC(=O)NCCCCCCCCCCC(=O)O)CSCC(=O)N[C@@H](Cc2ccccc2)C(=O)N[C@@H](Cc2cccc(C)c2)C(=O)N[C@@H](CC(=O)O)C1=O (stereo in doubt) [compound 2289],0.0157 µM
5,CCCCCCN1CC(=O)N[C@@H](Cc2ccc(O)cc2)C(=O)N[C@@H](CCCC)C(=O)N[C@@H](CC(=O)O)C(=O)N[C@@H](CCCNC(=N)N)C(=O)N[C@@H](CC(C)C)C(=O)N[C@@H](CCCCC)C(=O)N2CCC[C@H]2C(=O)N[C@@H](C(C)C)C(=O)N[C@@H](CC(N)=O)C(=O)N[C@H](C(=O)NCCOCCOCC(=O)N[C@@H](CC(=O)O)C(=O)NCCOCCOCC(=O)NCCCCCCCCCCC(=O)O)CSCC(=O)N[C@@H](Cc2ccccc2)C(=O)N[C@@H](Cc2ccc(O)cc2)C(=O)N[C@@H](CC(=O)O)C1=O (stereo in doubt) [compound 2295],0.0331 µM
6,CCCCCCN1CC(=O)N[C@@H](Cc2ccc(O)cc2)C(=O)N[C@@H](CCCC)C(=O)N[C@@H](CC(N)=O)C(=O)N[C@@H](CCCNC(N)=O)C(=O)N[C@@H](CC(C)C)C(=O)N[C@@H](CCCCC)C(=O)N2CCC[C@H]2C(=O)N[C@@H](C(C)C)C(=O)N[C@@H](CO)C(=O)N[C@H](C(=O)NCCOCCOCC(=O)N[C@@H](CC(=O)O)C(=O)NCCOCCOCC(=O)NCCCCCCCCCCC(=O)O)CSCC(=O)N[C@@H](Cc2ccc3ccccc3c2)C(=O)N[C@@H](Cc2ccc(O)cc2)C(=O)N[C@@H](CC(=O)O)C1=O (stereo in doubt) [compound 2305],0.023 µM
7,CCCCCCN1CC(=O)N[C@@H](Cc2ccc(O)cc2)C(=O)N[C@@H](CCCC)C(=O)N[C@@H](CC(N)=O)C(=O)N[C@@H](CCCNC(N)=O)C(=O)N2Cc3ccccc3C[C@H]2C(=O)N[C@@H](CCCCC)C(=O)N2CCC[C@H]2C(=O)N[C@@H](C(C)C)C(=O)N[C@@H](CO)C(=O)N[C@H](C(=O)NCCOCCOCC(=O)N[C@@H](CC(=O)O)C(=O)NCCOCCOCC(=O)NCCCCCCCCCCC(=O)O)CSCC(=O)N[C@@H](Cc2ccccc2)C(=O)N[C@@H](Cc2c[nH]c3ccccc23)C(=O)N[C@@H](CC(=O)O)C1=O (stereo in doubt) [compound 2311],0.0284 µM
8,CCCCCCN1CC(=O)N[C@@H](Cc2ccc(O)cc2)C(=O)N[C@@H](CCCC)C(=O)N[C@@H](CC(N)=O)C(=O)N[C@@H](CCCNC(=N)N)C(=O)N(C)[C@@H](CC(C)C)C(=O)N[C@@H](CCCCC)C(=O)N2CCC[C@H]2C(=O)N[C@@H](C(C)C)C(=O)N[C@@H](CO)C(=O)N[C@H](C(=O)NCCOCCOCC(=O)N[C@@H](CC(=O)O)C(=O)NCCOCCOCC(=O)NCCCCCCCCCCC(=O)O)CSCC(=O)N[C@@H](Cc2ccccc2)C(=O)N[C@@H](Cc2c[nH]c3ccccc23)C(=O)N[C@@H](CC(=O)O)C1=O (stereo in doubt) [compound 2314],0.0346 µM

# Continued by falling IC50, values first:
row,IC50,Compound
1,0.0391 µM,CCCCCCN1CC(=O)N[C@@H](Cc2ccc(O)cc2)C(=O)N[C@@H](CCCC)C(=O)N[C@@H](CC(N)=O)C(=O)N[C@@H](CCCNC(=N)N)C(=O)N(C)[C@@H](CCCC)C(=O)N[C@@H](CCCCC)C(=O)N2CCC[C@H]2C(=O)N[C@@H](C(C)C)C(=O)N[C@@H](CC(=O)O)C(=O)N[C@H](C(=O)NCCOCCOCC(=O)N[C@@H](CC(=O)O)C(=O)NCCOCCOCC(=O)NCCCCCCCCCCC(=O)O)CSCC(=O)N[C@@H](Cc2ccc3ccccc3c2)C(=O)N[C@@H](Cc2c[nH]c3ccccc23)C(=O)N[C@@H](CC(=O)O)C1=O (stereo in doubt) [compound 2290]
2,0.0213 µM,CCCCCCN1CC(=O)N[C@@H](Cc2ccc(O)cc2)C(=O)N[C@@H](CCCC)C(=O)N[C@@H](CC(N)=O)C(=O)N[C@@H](CCCNC(=N)N)C(=O)N(C)[C@@H](CCCC)C(=O)N[C@@H](CCCCC)C(=O)N2CCC[C@H]2C(=O)N[C@@H](C(C)C)C(=O)N[C@@H](CO)C(=O)N[C@H](C(=O)NCCOCCOCC(=O)N[C@@H](CC(=O)O)C(=O)NCCOCCOCC(=O)NCCCCCCCCCCC(=O)O)CSCC(=O)N[C@@H](Cc2ccccc2)C(=O)N[C@@H](Cc2c[nH]c3ccccc23)C(=O)N[C@@H](CC(=O)O)C1=O (stereo in doubt) [compound 2318]
3,0.0183 µM,CCCCCCN1CC(=O)N[C@@H](Cc2ccc(O)cc2)C(=O)N[C@@H](CCCC)C(=O)N[C@@H](CC(N)=O)C(=O)N[C@@H](CCCNC(N)=O)C(=O)N(C)[C@@H](CCCC)C(=O)N[C@@H](CCCCC)C(=O)N2CCC[C@H]2C(=O)N[C@@H](C(C)C)C(=O)N[C@@H](CO)C(=O)N[C@H](C(=O)NCCOCCOCC(=O)N[C@@H](CC(=O)O)C(=O)NCCOCCOCC(=O)NCCCCCCCCCCC(=O)O)CSCC(=O)N[C@@H](Cc2ccccc2)C(=O)N[C@@H](Cc2c[nH]c3ccccc23)C(=O)N[C@@H](CC(=O)O)C1=O (stereo in doubt) [compound 2317]
4,0.0179 µM,CCCCCCN1CC(=O)N[C@@H](Cc2ccc(O)cc2)C(=O)N[C@@H](CCCC)C(=O)NCC(=O)N[C@@H](CCCNC(N)=O)C(=O)N[C@@H](CC(C)C)C(=O)N[C@@H](CCCCC)C(=O)N2CCC[C@H]2C(=O)N[C@@H](C(C)C)C(=O)N[C@@H](CC(=O)O)C(=O)N[C@H](C(=O)NCCOCCOCC(=O)N[C@@H](CC(=O)O)C(=O)NCCOCCOCC(=O)NCCCCCCCCCCC(=O)O)CSCC(=O)N[C@@H](Cc2cccc(C)c2)C(=O)N[C@@H](Cc2ccc(O)cc2)C(=O)N[C@@H](CC(=O)O)C1=O (stereo in doubt) [compound 2309]
5,0.0174 µM,CCCCCCN1CC(=O)N[C@@H](Cc2ccc(O)cc2)C(=O)N[C@@H](CC(C)C)C(=O)N[C@@H](CC(N)=O)C(=O)N[C@@H](CCCNC(=N)N)C(=O)N[C@@H](CC(C)C)C(=O)N[C@@H](CCCCC)C(=O)N2CCC[C@H]2C(=O)N[C@@H](C(C)C)C(=O)N[C@@H](C(C)C)C(=O)N[C@H](C(=O)NCCOCCOCC(=O)N[C@@H](CC(=O)O)C(=O)NCCOCCOCC(=O)NCCCCCCCCCCC(=O)O)CSCC(=O)N[C@@H](Cc2ccccc2)C(=O)N[C@@H](Cc2ccc(O)cc2)C(=O)N[C@@H](CC(=O)O)C1=O (stereo in doubt) [compound 2291]
